The results in this text go back to ChEMBL document CHEMBL1132687, “Synthesis and enantiopharmacology of new AMPA-kainate receptor agonists” (J Med Chem, 1999).

Activity calls are given as the source filed them. The rule behind the calls is not given here.

Data set [1] in a line: The dissociation constant at ammonium group in water at 20 degree Centigrade. To be noted: read-out: pKa3. The format is ADME.
Data set [2] can be described thus: physchem. Conditions: water.
Description: The dissociation constant at omega-carboxyl or hydroxyl group in water at 20 degree Centigrade.
A short description of data set [3]: physchem. To be noted: water. The source holds these as a separate data set.
The species entered for data set [4] is Rattus norvegicus. Briefly: Electropharmacology on rat cortical slice preparation for EAA-evoked depolarizations; Depolarization evoked by the compound is partially antagonised by 5 uM of NBQX and fully antagonised by 20 uM of NBQX. In kind it is functional.
In the next data set the test system is CHO. The data set is described as follows: Affinity at Metabotropic glutamate receptor (Glu1-alpha,Glu2,Glu4a) expressed in CHO cells; Not significant activity up to 1 mM concentration. In kind it is cell-based.
For data set [5], the target named is Glutamate receptor ionotropic, kainate. Briefly: Binding affinity against Ionotropic glutamate receptor kainate using [3H]KAIN as radioligand. In kind it is protein-complex assay.
For data set [6], the target named is Glutamate receptor ionotropic, AMPA (Rattus norvegicus, UniProt P19490+P19491+P19492+P19493).
Description: Binding affinity against Ionotropic glutamate receptor AMPA using [3H]AMPA as radioligand.
Data set [7] in a line: physchem. Conditions: water. The source holds these as a separate data set.
The next data set deals with Glutamate NMDA receptor. Briefly: Binding affinity against N-methyl-D-aspartate glutamate receptor using [3H]-CPP as radioligand. In kind it is protein-complex assay.
Data set [8] is filed under the species Rattus norvegicus. The data set is described as follows: Electropharmacology on rat cortical slice preparation for EAA-evoked depolarizations; Depolarization evoked by the compound is antagonised by 10 uM of CPP. In kind it is functional.
For data set [9], the species on record is Rattus norvegicus. Briefly: Electropharmacology on rat cortical slice preparation for EAA-evoked depolarizations;Depolarization evoked by the compound is fully antagonised by 5 uM of NBQX. The format is functional.
Data set [10] is filed under the species Rattus norvegicus. Briefly: Electropharmacology on rat cortical slice preparation for EAA-evoked depolarizations;. The format is functional.
Data set [11] is filed under the species Rattus norvegicus. Briefly: Electropharmacology on rat cortical slice preparation for EAA-evoked depolarizations; Depolarization evoked by the compound is fully antagonised by 5 uM of NBQX. In kind it is functional.
The species entered for data set [12] is Rattus norvegicus. Briefly: Electropharmacology on rat cortical slice preparation for EAA-evoked depolarizations;Depolarization evoked by the compound is partially antagonised by 5 uM of NBQX and fully antagonised by 20 uM of NBQX. The format is functional.
A short description of data set [13]: The dissociation constant at omega-carboxyl or hydroxyl group iin water at 20 degree Centigrade. (evaluated by Uyeno., Y et. al.). The format is ADME. Conditions: read-out: pKa2.
Data set [14] can be described thus: The dissociation constant at ammonium group in water at 20 degree Centigrade. (evaluated by Uyeno., Y et. al.). The format is ADME. To be noted: read-out: pKa3.
A short description of data set [15]: The dissociation constant at alpha-carboxyl group in water at 20 degree Centigrade. (evaluated by Uyeno., Y et. al.). In kind it is ADME. To be noted: read-out: pKa1.
Data set [16] is filed under the species Rattus norvegicus. The data set is described as follows: Electropharmacology on rat cortical slice preparation for EAA-evoked depolarizations; Depolarization evoked by the compound is not antagonised by 5 uM of NBQX but fully antagonised by 20 uM of NBQX. In kind it is functional.

In general, EC50 refers to the concentration at which the effect is half-maximal. For `O=C(O)C1=NO[C@H]2CN[C@H](C(=O)O)[C@@H]12` (racemic) [listing 1 of 2 here], the pKa in data set [1] is 7.4; in “physchem [2]”, 2.15; in the data set “physchem [3]”, less than 2. Moreover, in the data set filed under Rattus norvegicus [4], the concentration for a half-maximal effect (EC50) was 5.4 µM.
For orientation: IC50 means the concentration needed to halve the response being measured. Low readings indicate greater potency, high ones weaker potency. As for `O=C1NO[C@H]2[C@@H]1CN[C@@H]2C(=O)O` (racemic), the outcome in the data set on CHO was inactive. Besides, the pKa in the data set “physchem [2]” amounted to 5.1; in the data set “physchem [3]”, 2; in “physchem [7]”, 8.3. Also, the figures for the IC50 (in data set [5]; in data set [6]; on Glutamate NMDA receptor) were 45.3 µM, 34.9 µM and greater than 100 µM, respectively. Moreover, the midpoint of the response in the data set listed under Rattus norvegicus [8], the EC50, lay at 1000 µM.
On to `O=C1NO[C@H]2CN[C@H](C(=O)O)[C@@H]12` (racemic), for which, in the data set with CHO, the result was inactive. Moreover, the half-inhibitory concentration (IC50) in [5] is 7.9 µM; in [6], 42.6 µM; on Glutamate NMDA receptor, greater than 100 µM. For the same compound, the response in the data set filed under Rattus norvegicus [8] was half-maximal at 1000 µM (EC50).
For the compound `O=C(O)C1=NO[C@H]2[C@@H]1CN[C@@H]2C(=O)O` (racemic) [listing 1 of 2 here], the EC50 in the data set filed under Rattus norvegicus [9] stood at 284 µM. The pKa in the data set “physchem [2]” was 2.6; in the data set “physchem [3]”, less than 2; in “physchem [7]” it was 7.3.
Regarding `O=C(O)C1=NO[C@H]2CN[C@H](C(=O)O)[C@@H]12` (racemic) [listing 2 of 2 here], in the data set with CHO, the result was inactive.
`O=C(O)C1=NO[C@H]2[C@@H]1CN[C@@H]2C(=O)O` (racemic) [listing 2 of 2 here]: the outcome in the data set on CHO was inactive.
`O=C(O)C1=NO[C@H]2CN[C@H](C(=O)O)[C@@H]12` (stereo in doubt; (+)-6) [listing 1 of 2 here] showed an EC50 in the data set filed under Rattus norvegicus [10] greater than 1000 µM. Besides, the concentration for half-maximal inhibition (IC50) in data set [5] and in [6] was greater than 100 µM each time.
For `O=C(O)C1=NO[C@H]2CN[C@H](C(=O)O)[C@@H]12` (stereo in doubt; (+)-6) [listing 2 of 2 here], in the data set with CHO, the result was inactive.
Regarding `O=C(O)C1=NO[C@H]2[C@@H]1CN[C@@H]2C(=O)O` (stereo in doubt; (+)-7) [listing 1 of 2 here], a half-maximal response in the data set listed under Rattus norvegicus [11] (EC50) required 251 µM. Besides, the half-inhibitory concentration (IC50) in data set [5] was 67 µM; in [6], 11.2 µM.
Regarding `O=C(O)C1=NO[C@H]2[C@@H]1CN[C@@H]2C(=O)O` (stereo in doubt; (+)-7) [listing 2 of 2 here], in the data set with CHO, the result was inactive.
With `O=C(O)C1=NO[C@H]2CN[C@H](C(=O)O)[C@@H]12` (stereo in doubt; (-)-6) [listing 1 of 2 here], the IC50 is 0.23 µM in data set [5] and 0.54 µM in data set [6]. The compound also displayed an EC50 in the data set listed under Rattus norvegicus [12] of 3.5 µM.
With `O=C(O)C1=NO[C@H]2CN[C@H](C(=O)O)[C@@H]12` (stereo in doubt; (-)-6) [listing 2 of 2 here], the result in the data set with CHO was inactive.
On to `O=C(O)C1=NO[C@H]2[C@@H]1CN[C@@H]2C(=O)O` (stereo in doubt; (-)-7) [listing 1 of 2 here], for which the concentration for a half-maximal effect (EC50) in the data set listed under Rattus norvegicus [10] was greater than 1000 µM. Also, the IC50 (in [5]; in [6]; on Glutamate NMDA receptor) was greater than 100 µM each time.
For `O=C(O)C1=NO[C@H]2[C@@H]1CN[C@@H]2C(=O)O` (stereo in doubt; (-)-7) [listing 2 of 2 here], in the data set with CHO, the outcome was inactive.
`N[C@@H](CCC(=O)O)C(=O)O` [GLUTAMIC ACID]: the results for the pKa in data set [13], in [14] and in data set [15] were 4.21, 9.54 and 2.39, respectively.
As to `C=C(C)[C@H]1CN[C@H](C(=O)O)[C@H]1CC(=O)O` [KAINIC ACID], the response in the data set filed under Rattus norvegicus [16] was half-maximal at 25 µM (EC50).
As for `CN[C@H](CC(=O)O)C(=O)O` [N-METHYL-D-ASPARTIC ACID (NMDA)], in the data set listed under Rattus norvegicus [8], the concentration giving a half-maximal response (EC50) was found to be 11 µM.
